Patent US4094966A, “Iodobenzene derivatives and X-ray contrast media containing the same” (priority 1974, dated 1978)

Legend:
[1] = Osmolality determination (FISKE osmometer); type: physicochemical; conditions: solutions containing 28% iodine; methylglucamine salts; extrapolation from successive dilutions
Method: Osmolality is determined by extrapolation of the values obtained on successive dilutions of solutions containing 28% or 38% iodine.
Osmolality readings are made with a FISKE Model 230/D/330 D osmometer. This apparatus indicates this measurement as milliosmoles per kg of solution. Its operation is based on the principles of cryoscopy. The determinations were made with solutions containing 28% iodine.

femoral artery = assay: Effect on the femoral rate of flow (peripheral vasodilatation); type: in vivo, mongrels; conditions: 1.5 ml into collateral of femoral artery
Method: This test was carried out in Nembutal-anesthetized male or female 7-12 mongrels.
Nembutal was used at a dosage of 30 mg/kg, with Vetranquil pre-medication, (overall intravenous injection of 2.5 mg), respiration was spontaneous.
Rate of flow variations were recorded at the level of the right or left fermoral artery, by means of a Statham electromagnetic sensor.
The injections were made in a collateral of the fermoral artery, downstream of the sensor, by means of a catheter mounted by the retrograde route, so as not to perturb the blood flow.
The injections were made under a constant volume of 1.5 ml administered within 3-5 seconds.
The same volume of an iostonic sodium chloride solution was also injected.

mice = assay: Acute toxicity determination, intravenous toxicity in mice; type: in vivo, mice (Swiss origin, IOPS mice of OFI strain); conditions: 24 hours
Method: Intravenous toxicity determination was effected in Swiss origin, IOPS mice of OFI strain.
Each dosage level was injected to a lot of 10 mice comprising 5 male and 5 female mice.
Injections were made manually, in the caudal vein, at a rate of 2 ml/minute.
Death rate during the 24 hours after injection was recorded.

[2] = Biliary clearance test in cats; type: in vivo; parameters: scale not given here; conditions: i.v., 0.10 g I/kg; 28% I, Mgl salt
Method: This test was conducted in male or female adult cats weighing 3-4 kg.
The test material was injected intravenously, at a dosage of 0.10 g/kg iodine at the level of the internal saphenous vein. Clearance of the material was monitored by X-ray control.
X-ray pictures visualizing the gall bladder and the bladder were taken at the following times: 30 minutes, 1 hour, 2 hours, 3 hours, 4 hours, 5 hours, 6 hours.

[3] = Viscosity of 28% methylglucamine salt solutions at 37° C; type: physicochemical; conditions: 28% iodine methylglucamine salt solution
Method: Pharmaceutical grade injectable solutions are prepared in the form of the methylgucamine or sodium salt, containing 28, 38 or 48 g iodine per 100 ml (solutions said to contain 28%, 38% and 48% iodine).
It is apparent, from said results, that, contrary to expectations, the compounds of the formula (I) have relatively low solution viscosities.

rats = assay: Toxicological investigation in rats on intracisternal injection (Melartin's method); type: in vivo
Source text: The results of a toxicological investigation effected in rats on intracisternal injection, according to E. Melartin's method (InvestigativeRadiology 1970 5, 1, 13-21) are also set forth below.

Compound	Osmolality [1]	Peripheral vasodilatation, femoral rate of flow (femoral artery; 28% I, Mgl salt)	Acute toxicity in mice, i.v. (mice; 28% I, Mgl salt)	Biliary clearance in cat, i.v. [2]	Viscosity [3]	Death rate (rats; 56 mg I per rat)	Death rate (rats; 50 mg I per rat)	Peripheral vasodilatation, femoral rate of flow (femoral artery; 38% I, Na salt)	Acute toxicity in mice, i.v. (mice; 38% I, Na salt)	Death rate (rats; 17 mg I per rat)
CNC(=O)c1c(I)c(C(=O)NCCCC(=O)Nc2c(I)c(C(=O)O)c(I)c(C(=O)NCCO)c2I)c(I)c(N(C)C(C)=O)c1I [Compound 24, 2,4,6-triiodo-3-N-hydroxyethylcarbamyl5-(2,4,6-triiodo-3-N-methylcarbamyl-5-N-methylacetamidobenzoyl)-ε-amino-butyrylamino-benzoic acid]	575 mosm/kg	+	8.5 grams I/kg	0	6 cps					
CNC(=O)c1c(I)c(NC(=O)CN(CC(=O)Nc2c(I)c(C(=O)NCCO)c(I)c(C(=O)NCCO)c2I)CC(=O)Nc2c(I)c(C(=O)NCCO)c(I)c(C(=O)NCCO)c2I)c(I)c(C(=O)O)c1I [Compound 31, 2,4,6-triiodo--3-N-methylcarbamyl-5-bis{[2,4,6-triiodo-3,5-bis(N-hydroxyethylcarbamyl)-phenyl]carbamylmethyl} aminoacetamido-benzoic acid]	350 mosm/kg	+	15 grams I/kg	0	10.2 cps	1/10				
CC(=O)N(C)c1c(I)c(NC(=O)CN(CC(=O)Nc2c(I)c(C(=O)NCCO)c(I)c(C(=O)NCCO)c2I)CC(=O)Nc2c(I)c(C(=O)NCCO)c(I)c(C(=O)NCCO)c2I)c(I)c(C(=O)O)c1I [Compound 32, 2,4,6-triiodo-3-N-methylacetamido-5-bis{[2,4,6-triiodo-3,5-bis(N-hydroxyethylcarbamyl)-phenyl]carbamylmethyl}aminoacetamido-benzoic acid]	270 mosm/kg	+	15 grams I/kg	0			0/10			
CNC(=O)c1c(I)c(C(=O)O)c(I)c(N(C)C(=O)CN(CC(=O)Nc2c(I)c(C(=O)NCCO)c(I)c(C(=O)NCCO)c2I)CC(=O)Nc2c(I)c(C(=O)NCCO)c(I)c(C(=O)NCCO)c2I)c1I [Compound 33, 2,4,6-triiodo-3-N-methylcarbamyl-5-bis{[2,4,6-triiodo-3,5,-bis(N-hydroxyethylcarbamyl)-phenyl]carbamylmethyl}amino-N-methylacetamido-benzoic acid]	370 mosm/kg					0/10		++	17 grams I/kg	
CNC(=O)c1c(I)c(NC(=O)CCCCC(=O)Nc2c(I)c(C(=O)O)c(I)c(C(=O)NC)c2I)c(I)c(C(=O)O)c1I [c, 5,5'-Adipoyldiimido-bis-(2,4,6-triiodo-N-methylisophthalamic)acid, reference compound]	950 mosm/kg	++	6.2 grams I/kg	0						9/10
